Source: patent publication US11278555B2, “Combinational therapies for treatment of cancer comprising a bacteriochlorophyll derivative” (Yeda Research and Development Co. Ltd., priority 2016, dated 2022)

Assays:
MB49 (bladder) tumors [1] = test: WST11 VTP and Gemzar in mice grafted with MB49 tumors (Scheme 2); format: in vivo; settings: for animals cured (fraction): WST11 9 mg/kg VTP day 15 post grafting, Gemzar 50 mg/kg, 12 treatments/90 days; for cure / tumor progression: single treatment modalities
Protocol: • (i) Bacteriochlorophyll Derivatives—The Bchl derivatives and RGD-conjugates thereof were provided by Steba Biotech (Rehovot, Israel). […] Concentration was verified by spectrophotometric measurement. STL-7012 was provided as dipotassium salt. Working solution was prepared by dissolving STL-7012 K^+ salt in 5% mannitol solution (1 mg/ml). […] WST11 was supplied as a powder and kept in the dark at −20° C. Stock was prepared by dissolving WST11 in DDW containing 5% glucose and 0.67% mannitol, aliquoted and lyophilized. Working solution was reconstituted with DDW and the concentration of solution was confirmed spectrophotometrically. Alternatively, Clinical WST11 (batch: P00611, and 10-130611) was supplied as lyophilized formulation. Material was dissolved in 5% dextrose, aliquoted and stored at −20° C. At the day of treatment the aliquot was thawed, filtered and the concentration of solution was confirmed spectrophotometrically. • (ii) Chemotherapeutic drugs preparation and storage—Gemcitabine (GEM, Gemzar®, Lilly) was purchased from a local pharmacy as a powder, dissolved in saline to a concentration of 38 mg/ml, aliquoted and stored at −20° C. […] Cyclophosphamide (CTX, Endoxan®, Baxter Oncology Gmbh, Germany) was purchased from a local pharmacy. A stock solution of 20 mg/ml was prepared by dissolving in 0.9% NaCl, aliquoted and stored at −20° C. Aliquots were thawed, diluted with saline if needed to a desired concentration and used on the same day prepared at indicated doses. • (iii) Murine cell lines—Mammary luciferase (luc)-labeled 4T1 cell line (4T1-Luc) was a kind gift from Dr. Zvi Granot (Faculty of Medicine, The Hebrew University of Jerusalem, Israel); melanoma B16-F10 cell line was obtained from the American Type Culture Collection (ATCC, Manassas, Va.); bladder MB49 cell line was a kind gift from James Allison (MSKCC, New York, USA), and luc-labeled MB49-cell line was established using the murine stem cell virus (MSCV)-puromycin-luc-GFP construct (kindly provided by Dr. Emily Cheng, Human Oncology and Pathogenesis Program, MSKCC). 4T1 and MB49 cells were maintained in DMEM medium and B16-F10 cells in RPMI medium supplemented with 1 mmol/L sodium pyruvate, 10% fetal calf serum (FCS), 250 μg/ml hygromycin, 0.06 mg/ml penicillin and 0.1 mg/ml streptomycin. The cells were grown as monolayer at 37° C. in a humidified atmosphere (5% CO2, 95% air). • (iv) Murine tumor models—Female, Balb/c mice (6-8 week old) were grafted either subcutaneously (s.c.) into the right hind leg or orthotopically with 1×10^6 4T1 cells suspended in 50 or 1000 PBS. For the rechallenge study, 2×10^5 4T1 cells were orthotopically grafted. For bladder cancer model, 5×10^4 of MB49 or MB49-luciferase cell line were s.c. injected into the right flank of C57B/6 male mice (7-8 weeks old, Taconic, Hudson, N.Y.) 15 days prior to VTP treatment. For the efficacy study of VTP in immune compromised mice, the same number of MB49 cells was injected in the flank of Rag^−/− on C57B/6 background or C57B/6 male mice (7-8 week old, Jackson Laboratory, Bar Harbor, Me.). For bilateral model of MB49 cells, animals received 5×10^4 MB49 cells in the right flank and 5×10^4 cells in the left flank on days −15 and +1, respectively. All experimental procedures were approved by the Institutional Animal Care and Use Committee at the Weizmann Institute of Science (Rehovot, Israel) and The Memorial Sloan Kettering Cancer Center (MSKCC, New York, USA). […] Whole body imaging of luciferase-transfected tumors and metastases were recorded five minutes following 75 mg Kg^−1 intraperitoneal (i.p.) injection of D-luciferin with respective filter sets. • (vi) PDT treatment protocol: 4T1-Luc cells were grafted in the mammary pad of Balb/c mice. […] During the first two post-treatment days, the mice received analgesia (2.5 mg/kg Flunexin, once daily). Ablation of primary tumors was assessed every 7 days by imaging the tumor's luciferase-mediated bioluminescence signal, using IVIS. […]

MB49 (bladder) tumors [2] = test: Systemic anti-tumor response in MB49 mice: second tumor (bilateral model) and tail vein re-challenge (Scheme 3); format: in vivo; settings: for animals with growth of second tumor grafted at left hind leg 1 day post VTP (fraction): bilateral model, Gemzar 50 mg/kg
Protocol: • (i) Bacteriochlorophyll Derivatives—The Bchl derivatives and RGD-conjugates thereof were provided by Steba Biotech (Rehovot, Israel). […] Concentration was verified by spectrophotometric measurement. STL-7012 was provided as dipotassium salt. Working solution was prepared by dissolving STL-7012 K^+ salt in 5% mannitol solution (1 mg/ml). […] WST11 was supplied as a powder and kept in the dark at −20° C. Stock was prepared by dissolving WST11 in DDW containing 5% glucose and 0.67% mannitol, aliquoted and lyophilized. Working solution was reconstituted with DDW and the concentration of solution was confirmed spectrophotometrically. Alternatively, Clinical WST11 (batch: P00611, and 10-130611) was supplied as lyophilized formulation. Material was dissolved in 5% dextrose, aliquoted and stored at −20° C. At the day of treatment the aliquot was thawed, filtered and the concentration of solution was confirmed spectrophotometrically. • (ii) Chemotherapeutic drugs preparation and storage—Gemcitabine (GEM, Gemzar®, Lilly) was purchased from a local pharmacy as a powder, dissolved in saline to a concentration of 38 mg/ml, aliquoted and stored at −20° C. […] Cyclophosphamide (CTX, Endoxan®, Baxter Oncology Gmbh, Germany) was purchased from a local pharmacy. A stock solution of 20 mg/ml was prepared by dissolving in 0.9% NaCl, aliquoted and stored at −20° C. […] Whole body imaging of luciferase-transfected tumors and metastases were recorded five minutes following 75 mg Kg^−1 intraperitoneal (i.p.) injection of D-luciferin with respective filter sets. • (vi) PDT treatment protocol: 4T1-Luc cells were grafted in the mammary pad of Balb/c mice. […] Ablation of primary tumors was assessed every 7 days by imaging the tumor's luciferase-mediated bioluminescence signal, using IVIS. […]

[3] = Spleen weight of animals orthotopically grafted with 4T1 cancer cells; format: in vivo, mice; settings: 1 and 3 weeks
Excerpt: FIG. 13 compares changes in the spleen weight of animals orthotopically grafted with 4T1 cancer cells and not treated (control) with tumor bearing animals that underwent Gemzar treatment, WST11 VTP treatment or their combination.

[4] = test system: CD11b+ cells, neutrophils/G-MDSC and monocytes/M-MDSC; test: Innate immune response (spleen CD11b+ IHC, FACS of MDSC) of mice bearing MB49 tumors; format: in vivo; settings: for CD11b+ cells in the spleen (IHC): day 6 post VTP; for neutrophils/G-MDSC and monocytes/M-MDSC in splenocytic cells (FACS): day 9 post treatment, Gemzar 60 or 120 mg/kg
Protocol: • (i) Bacteriochlorophyll Derivatives—The Bchl derivatives and RGD-conjugates thereof were provided by Steba Biotech (Rehovot, Israel). […] Concentration was verified by spectrophotometric measurement. STL-7012 was provided as dipotassium salt. Working solution was prepared by dissolving STL-7012 K^+ salt in 5% mannitol solution (1 mg/ml). […] WST11 was supplied as a powder and kept in the dark at −20° C. Stock was prepared by dissolving WST11 in DDW containing 5% glucose and 0.67% mannitol, aliquoted and lyophilized. Working solution was reconstituted with DDW and the concentration of solution was confirmed spectrophotometrically. Alternatively, Clinical WST11 (batch: P00611, and 10-130611) was supplied as lyophilized formulation. Material was dissolved in 5% dextrose, aliquoted and stored at −20° C. At the day of treatment the aliquot was thawed, filtered and the concentration of solution was confirmed spectrophotometrically. • (ii) Chemotherapeutic drugs preparation and storage—Gemcitabine (GEM, Gemzar®, Lilly) was purchased from a local pharmacy as a powder, dissolved in saline to a concentration of 38 mg/ml, aliquoted and stored at −20° C. […] Cyclophosphamide (CTX, Endoxan®, Baxter Oncology Gmbh, Germany) was purchased from a local pharmacy. A stock solution of 20 mg/ml was prepared by dissolving in 0.9% NaCl, aliquoted and stored at −20° C. Aliquots were thawed, diluted with saline if needed to a desired concentration and used on the same day prepared at indicated doses. • (iii) Murine cell lines—Mammary luciferase (luc)-labeled 4T1 cell line (4T1-Luc) was a kind gift from Dr. Zvi Granot (Faculty of Medicine, The Hebrew University of Jerusalem, Israel); melanoma B16-F10 cell line was obtained from the American Type Culture Collection (ATCC, Manassas, Va.); bladder MB49 cell line was a kind gift from James Allison (MSKCC, New York, USA), and luc-labeled MB49-cell line was established using the murine stem cell virus (MSCV)-puromycin-luc-GFP construct (kindly provided by Dr. Emily Cheng, Human Oncology and Pathogenesis Program, MSKCC). 4T1 and MB49 cells were maintained in DMEM medium and B16-F10 cells in RPMI medium supplemented with 1 mmol/L sodium pyruvate, 10% fetal calf serum (FCS), 250 μg/ml hygromycin, 0.06 mg/ml penicillin and 0.1 mg/ml streptomycin. […] Whole body imaging of luciferase-transfected tumors and metastases were recorded five minutes following 75 mg Kg^−1 intraperitoneal (i.p.) injection of D-luciferin with respective filter sets. • (vi) PDT treatment protocol: 4T1-Luc cells were grafted in the mammary pad of Balb/c mice. […] Ablation of primary tumors was assessed every 7 days by imaging the tumor's luciferase-mediated bioluminescence signal, using IVIS. […]

Row | SMILES | animals cured (fraction) (MB49 (bladder) tumors [1]) | cure (MB49 (bladder) tumors [1]) [%] | tumor progression (MB49 (bladder) tumors [1]) | animals with growth of second tumor grafted at left hind leg 1 day post VTP (fraction) (MB49 (bladder) tumors [2]) | six fold increase in spleen weight found in non-treated animals [3] | CD11b+ cells in the spleen (IHC) [4] | neutrophils/G-MDSC and monocytes/M-MDSC in splenocytic cells (FACS) [4] | surviving mice that rejected the tumor cells (MB49 (bladder) tumors [2]; re-challenge by tail vein injection of MB49 cells at day 125 post VTP) [%]
1 | Nc1ccn([C@@H]2O[C@H](CO)[C@@H](O)C2(F)F)c(=O)n1 [Gemzar, Gemcitabine] | 0/19 | 0 | slightly delayed tumor progression | 15/20 | almost completely avoided | depletes CD11b+ cells | depleted systemically | –
2 | CCC1c2cc3[n-]c(c(CC(=O)OC)c4nc(cc5[n-]c(cc(n2)C1C)c(C(C)=O)c5C)C(C)C4CCC(=O)[O-])c(C(=O)NCCS(=O)(=O)[O-])c3C.[K+].[K+].[Pd+2] (stereo not drawn) [WST11, Palladium 3^1-oxo-15-methoxycarbonylmethyl-rhodobacteriochlorin 13^1-(2-sulfoethyl) amide dipotassium salt] | 3/19 | 16 | slightly delayed tumor progression | 12/19 | completely prevented | depletes CD11b+ cells | depleted systemically | 70
